Data taken from patent EP0102213A1, “Ethanolamine derivatives, pharmaceutical compositions containing them, and processes for preparing them” (BEECHAM GROUP PLC, priority 1982, dated 1984).
Where a name gives a salt, the structure may show the parent alone.

Assays:
left atrium = test: Cardiac activity: tension of the electrically paced isolated left atrium; set-up: species or system Sprague-Dawley male rats; conditions: rat left atrium; for Emax: intrinsic activity: maximal effect relative to isoprenaline maximum (isoprenaline = 1), read-out: Tension i.a.; for EC50: electrically paced, Krebs solution 32°C, concentration producing 50% of the compound's own maximum response
Procedure: (§1) Sprague-Dawley male rats (300-400 g) are killed and the right and left atria dissected out independently and mounted on a combined tissue holder/ electrode. The tissues are then immersed in a glass bath containing Krebs solution maintained at 32°C. The rate of the spontaneously beating right atrium (via an isometric transducer and a ratemeter) and the tension of the electrically paced left atrium (via an isometric transducer) are recorded on an Ml9 chart recorder.
(§2) After an initial stabilization period, the tissues are exposed to a maximal concentration of isoprenaline (10-^7M). The tissues are then washed several times until rate and tension return to baseline level. A dose-response curve to the test compound is then carried out.
(§3) Responses to each concentration of test compound are expressed as a percentage of the maximal responses to isoprenaline. Results are given in the form of (a) intrinsic activity (i.a.) (maximal effect of test compound with respect to isoprenaline maximum, i.e. isoprenaline intrinsic activity = 1) and (b) EC50 (the molar concentration at which the test compound produces 50% of its own maximum response).

right atrium = test: Cardiac activity: rate of the spontaneously beating isolated right atrium; set-up: species or system Sprague-Dawley male rats; conditions: rat right atrium; for Emax: intrinsic activity: maximal effect relative to isoprenaline maximum (isoprenaline = 1), read-out: Rate i.a.; for EC50: Krebs solution 32°C, concentration producing 50% of the compound's own maximum response
Procedure: as §1, §2, §3

genetically obese mice = test: Anti-obesity activity: carcass lipid after daily oral gavage for 28 days; assay type: in vivo; conditions: carcass composition
Procedure: The compounds were administered by oral gavage in water or carboxymethyl-cellulose suspension to genetically obese mice daily for 28 days. At the end of the time the carcass composition was determined.

Female CFLP mice = test: Hypoglycaemic activity: blood glucose after subcutaneous glucose load in fasted mice; assay type: in vivo; conditions: 24 h fasted female CFLP mice, glucose 1 g/Kg s.c. 30 min after dosing, 2 hour AUC versus water controls
Procedure: Female CFLP mice, weighing approximately 25 g, were fasted for 24 hours prior to the study. The compounds under study were administered orally as an aqueous solution to each of 6 mice. 30 minutes later a blood sample (10 ul) was obtained from the tail for the analysis of blood glucose. Immediately after taking this blood sample, glucose (lg/Kg body weight) was administered subcutaneously to each mouse. 6 mice were given water as a control. Blood samples were then obtained from each mouse at 30 minute intervals for 120 minutes.
Compounds that produced a significant (P<0.05) reduction of blood glucose, compared with control mice given water, at any time interval, were considered active. The area under the blood glucose curve over the 2 hour period after the administration of the glucose was calculated for each compound and compared with the value for control animals.

[1] = 13.4 mg/kg p.o. daily for 28 days

Row | EC50 (right atrium) [µM] | EC50 (left atrium) [µM] | Structure (SMILES) | Emax (left atrium) [%] | Emax (right atrium) [%] | g LIPID/MOUSE TREATED (genetically obese mice; [1]) [g] | % Reduction in area under Blood Glucose Curve (Female CFLP mice; 12.5 μmol/Kg orally) [%] | % Reduction in area under Blood Glucose Curve (Female CFLP mice; 2.5 μmol/Kg orally) [%] | g LIPID/MOUSE TREATED (genetically obese mice; 11.9 mg/kg p.o. daily for 28 days) [g]
1 | 0.17 |  | CC(Cc1ccc(OCCN2CCN(c3ccccc3)CC2)cc1)NCC(O)c1cccc(Cl)c1F (centres unmarked) [Example 7, N-[2-(4-(2-(1-(4-Phenyl)piperazinyl)ethoxy)phenyl)-1-methylethyl]-2-hydroxy-2-(2-fluoro-3-chlorophenyl)ethanamine trihydrochloride] | 0 | 35 |  |  |  | 
2 | 0.035 | 45 | CC(Cc1ccc(OCCN2CCN(c3cccc(C(F)(F)F)c3)CC2)cc1)NCC(O)c1cccc(Cl)c1 (centres unmarked) [Example 13, N-[2-(4-(2-(1-(4-(3-Trifluoromethylphenyl))piperazinyl)-ethoxy)phenyl)-1-methylethyl]-2-hydroxy-2-(3-chlorophenyl) ethanamine trihydrochloride] | 33 | 7 | 16.40 |  |  | 
3 |  |  | CC(Cc1ccc(OCCN2CCN(c3cccc(Cl)c3)CC2)cc1)NCC(O)c1cccc(C(F)(F)F)c1 (centres unmarked) [Example 8, N-[2-(4-(2-(1-(4-(3-Chlorophenyl))piperazinyl)ethoxy)-phenyl)-1-methylethyl]-2-hydroxy-2-(3-trifluoromethylphenyl)ethanamine trihydrochloride] |  |  | 18.06 |  |  | 
4 |  |  | COC(CNC(C)Cc1ccc(OCCN2CCN(c3ccccc3)CC2)cc1)c1cccc(Cl)c1 (centres unmarked) [Example 15, N-[2-(4-(2-(1-(4-Phenyl)piperazinyl)ethoxy)phenyl)-1-methylethyl]-2-methoxy-2-(3-chlorophenyl)ethanamine trihydrochloride] |  |  |  | 47 |  | 
5 | 20 | 27 | CC(Cc1ccc(OCCN2CCN(c3ccc(Cl)cc3)CC2)cc1)NCC(O)c1cccc(C(F)(F)F)c1 (centres unmarked) [Example 10, N-[2-(4-(2-(1-(4-(4-Chlorophenyl))piperazinyl)ethoxy)-phenyl)-1-methylethyl]-2-hydroxy-2-(3-trifluoromethylphenyl)ethanamine trihydrochloride] | 100 | 86 |  |  |  | 
6 |  |  | CC(Cc1ccc(OCCN2CCN(c3ccccc3)CC2)cc1)NCC(O)c1cccc(C(F)(F)F)c1 (centres unmarked) [Example 2, N-[2-(4-(2-(1-(4-Phenyl)piperazinyl)ethoxy)phenyl)-1-methylethyl]-2-hydroxy-2-(3-trifluoromethylphenyl)ethan-amine trihydrobromide] | 0 |  |  |  | 64 | 
7 |  |  | Br.Br.Br.CC(Cc1ccc(OCCN2CCNCC2)cc1)NCC(O)c1cccc(C(F)(F)F)c1 (centres unmarked) [Example 3, N-[2-(4-(2-(1-Piperazinyl)ethoxy)phenyl)-1-methylethyl]-2-hydroxy-2-(3-trifluoromethylphenyl)ethanamine trihydrobromide] |  |  |  |  | 20 | 
8 | 0.35 | 14 | CC(Cc1ccc(OCCN2CCN(c3ccccc3)CC2)cc1)NCC(O)c1ccccc1F (centres unmarked) [Example 6, N-[2-(4-(2-(1-(4-Phenyl)piperazinyl)ethox)phenyl)-1-methylethyl]-2-hydroxy-2-(2-fluorophenyl)ethanamine trihydrochloride] | 28 | 44 |  |  |  | 
9 |  |  | CC(Cc1ccc(OCCN2CCN(Cc3ccccc3)CC2)cc1)NCC(O)c1cccc(C(F)(F)F)c1 (centres unmarked) [Example 1, N-[2-(4-(2-(1-(4-Benzyl)piperazinyl)ethoxy)henyl)-1-methylethyl]-2-hydroxy-2-(3-trifluoromethylphenyl)ethanamine trihydrochloride] | 0 | 0 |  |  | 38 | 

Row | Structure (SMILES) | EC50 (right atrium) [µM] | EC50 (left atrium) [µM] | Emax (left atrium) [%] | Emax (right atrium) [%] | g LIPID/MOUSE TREATED (genetically obese mice; [1]) [g] | % Reduction in area under Blood Glucose Curve (Female CFLP mice; 12.5 μmol/Kg orally) [%] | % Reduction in area under Blood Glucose Curve (Female CFLP mice; 2.5 μmol/Kg orally) [%] | g LIPID/MOUSE TREATED (genetically obese mice; 11.9 mg/kg p.o. daily for 28 days) [g]
10 | CC(Cc1ccc(OCCN2CCN(c3ccccc3)CC2)cc1)NCC(O)c1ccccc1 (centres unmarked) [Example 5, N-[2-(4-(2-(1-(4-Phenyl)piperazinyl)ethoxy)phenyl)-1-methylethyl]-2-hydroxy-2-phenylethanamine trihydrochloride] | 0.54 | 12 | 67 | 42 |  |  |  | 
11 | CC(Cc1ccc(OCCN2CCN(C)CC2)cc1)NCC(O)c1cccc(C(F)(F)F)c1 (centres unmarked) [Example 14, N-[2-(4-(2-(1-(4-Methyl)piperazinyl)ethoxy)henyl)-1-methylethyl]-2-hydroxy-2-(3-trifluoromethylphenyl) ethanamine trihydrochloride, monohydrate] | 1.7 |  | 0 | 4 |  |  |  | 18.26
